Results reported in PMC8740778, “Translational Pharmacokinetic–Pharmacodynamic Modeling of NaV1.7 Inhibitor MK-2075 to Inform Human Efficacious Dose” (Frontiers in Pharmacology, 2021).
Marks after values point to notes of the source that are not given here.

What was measured:
[1] = design: method as in Rothenberg et al., 2019; settings: healthy volunteers; no exposure-related pattern; ref Rothenberg et al., 2019; cited from earlier work
BALB/c male mice = experiment: Mouse tail flick latency; format: in vivo; settings: at clinical efficacious concentrations
[2] = trough plasma concentration just prior to patient-controlled subsequent dose; postoperative pain; ref Dahlstrom et al., 1982 (morphine), Lehmann et al., 1990 (tramadol); cited from earlier work

O=C(NS(=O)(=O)N1CCC1)c1cc(C2CC2)c(OCC23CC4CC(CC(C4)C2)C3)cc1F [GDC-0276]
Hyposmia (reduced sense of smell) in clinical study [1]: a couple of incidents of hyposmia were reported

CN1CC[C@]23c4c5ccc(O)c4O[C@H]2[C@@H](O)C=C[C@H]3[C@H]1C5 [Morphine]
Percent of the maximum possible effect in mouse tail flick latency (BALB/c male mice): approximately 50% | Clinical MEC, mean (range) [2]: 0.074 (0.032–0.116) ^b µM

COc1cccc(C2(O)CCCCC2CN(C)C)c1 (centres unmarked) [Tramadol]
Percent of the maximum possible effect in mouse tail flick latency (BALB/c male mice): approximately 50% | Clinical MEC, mean (range) [2]: 1.092 (0.077–3.744) ^c µM
